Experimental data from US20250049035A1, “MICROBIOCIDAL BICYCLE HETEROCYCLIC DERIVATIVES” (SYNGENTA CROP PROTECTION AG, priority 2021, published 2025).

Experiments:
Alternaria solani = Alternaria solani / tomato / leaf disc (early blight); assay type: in vivo; details: foliar, tomato leaf disks cv. Baby, inoculated 2 days after application, assessed 5-7 days after application, compared to untreated control
Method: Example B1: Alternaria solani/Tomato/Leaf Disc (Early Blight) Tomato leaf disks cv. Baby are placed on agar in multiwell plates (24-well format) and sprayed with the formulated test compound diluted in water. The leaf disks are inoculated with a spore suspension of the fungus 2 days after application. The inoculated leaf disks are incubated at 23° C./21° C.

[1] = test system: Botryotinia fuckeliana (Botrytis cinerea); test: Botryotinia fuckeliana (Botrytis cinerea) / liquid culture (gray mould); assay type: cell-based; details: liquid culture (Vogels broth), growth inhibition photometrically 3-4 days after application, compared to untreated control
Method: (§1) Example B2: Botryotinia fuckeliana (Botrytis cinerea)/Liquid Culture (Gray Mould) Conidia of the fungus from cryogenic storage are directly mixed into a nutrient broth (Vogels broth). After placing a DMSO solution of test compound into a microtiter plate (96-well format), the nutrient broth containing the fungal spores is added. The test plates are incubated at 24° C. and the inhibition of growth is determined photometrically 3-4 days after application.

[2] = test system: Glomerella lagenarium (Colletotrichum lagenarium); test: Glomerella lagenarium (Colletotrichum lagenarium) / liquid culture (anthracnose); assay type: cell-based; details: Colletotrichum orbiculare, liquid culture (potato dextrose broth), growth inhibition photometrically 3-4 days after application, compared to untreated control
Method: as §1, with “B3: Glomerella lagenarium (Colletotrichum lagenarium)/Liquid” for “B2: Botryotinia fuckeliana (Botrytis cinerea)/Liquid”, “(Anthracnose)” for “(Gray Mould)”, “(potato dextrose” for “(Vogels”, “measured” for “determined”

[3] = test system: Monographella nivalis (Microdochium nivale); test: Monographella nivalis (Microdochium nivale) / liquid culture (foot rot cereals); assay type: cell-based; details: liquid culture (potato dextrose broth), growth inhibition photometrically 4-5 days after application, compared to untreated control
Method: as §1, with “B9: Monographella nivalis (Microdochium nivale)/Liquid” for “B2: Botryotinia fuckeliana (Botrytis cinerea)/Liquid”, “(Foot Rot Cereals)” for “(Gray Mould)”, “(potato dextrose” for “(Vogels”, “4-5” for “3-4”

[4] = test system: Mycosphaerella arachidis (Cercospora arachidicola); test: Mycosphaerella arachidis (Cercospora arachidicola) / liquid culture (early leaf spot); assay type: cell-based; details: liquid culture (potato dextrose broth), growth inhibition photometrically 4-5 days after application, compared to untreated control
Method: as §1, with “B10: Mycosphaerella arachidis (Cercospora arachidicola)/Liquid” for “B2: Botryotinia fuckeliana (Botrytis cinerea)/Liquid”, “(Early Leaf Spot)” for “(Gray Mould)”, “(potato dextrose broth)” for “(Vogels broth).”, “4-5” for “3-4”

Pyrenophora teres = Pyrenophora teres / barley / leaf disc preventative (net blotch); assay type: in vivo; details: foliar, barley leaf segments cv. Hasso, inoculated 2 days after application, assessed 5-7 days after application, compared to untreated control
Method: Example B12: Pyrenophora teres/Barley/Leaf Disc Preventative (Net Blotch) Barley leaf segments cv. Hasso are placed on agar in a multiwell plate (24-well format) and sprayed with the formulated test compound diluted in water. The leaf segments are inoculated with a spore suspension of the fungus 2 days after application. The inoculated leaf segments are incubated at 20° C. and 65% relative humidity under a light regime of 12 h light/12 h darkness in a climate cabinet and the activity of a compound is assessed as disease control compared to untreated when an appropriate level of disease damage appears in untreated check leaf segments (5-7 days after application).

[5] = test system: Mycosphaerella graminicola (Septoria tritici); test: Mycosphaerella graminicola (Septoria tritici) / liquid culture (Septoria blotch); assay type: cell-based; details: Zymoseptoria tritici, liquid culture (potato dextrose broth), growth inhibition photometrically 4-5 days after application, compared to untreated control
Method: as §1, with “B15: Mycosphaerella graminicola (Septoria tritici/Liquid” for “B2: Botryotinia fuckeliana (Botrytis cinerea)/Liquid”, “(Septoria Blotch)” for “(Gray Mould)”, “(potato dextrose” for “(Vogels”, “4-5” for “3-4”

[6] = test system: Blumeria graminis f. sp. tritici (Erysiphe graminis f. sp. tritici); test: Blumeria graminis f. sp. tritici / wheat / leaf disc preventative (powdery mildew); assay type: in vivo; details: foliar, wheat leaf segments cv. Kanzler, inoculated 1 day after application, assessed 6-8 days after application, compared to untreated control
Method: Example B4: Blumeria graminis f. sp. tritici (Erysiphe graminis f. sp. tritici)/Wheat/Leaf Disc Preventative (Powdery Mildew on Wheat) Wheat leaf segments cv. Kanzler are placed on agar in a multiwell plate (24-well format) and sprayed with the formulated test compound diluted in water. The leaf disks are inoculated by shaking powdery mildew infected plants above the test plates 1 day after application. The inoculated leaf disks are incubated at 20° C. and 60% relative humidity under a light regime of 24 h darkness followed by 12 h light/12 h darkness in a climate chamber and the activity of a compound is assessed as percent disease control compared to untreated when an appropriate level of disease damage appears on untreated check leaf segments (6-8 days after application).

[7] = test system: Phaeosphaeria nodorum (Septoria nodorum); test: Phaeosphaeria nodorum (Septoria nodorum) / wheat / leaf disc preventative (glume blotch); assay type: in vivo; details: Parastagonospora nodorum, foliar, wheat leaf segments cv. Kanzler, inoculated 2 days after application, assessed 5-7 days after application, compared to untreated control
Method: Example B8: Phaeosphaeria Nodorum (Septoria nodorum)/Wheat/Leaf Disc Preventative (Glume Blotch) Wheat leaf segments cv. Kanzler are placed on agar in a multiwell plate (24-well format) and sprayed with the formulated test compound diluted in water. The leaf disks are inoculated with a spore suspension of the fungus 2 days after application. The inoculated test leaf disks are incubated at 20° C. and 75% relative humidity under a light regime of 12 h light/12 h darkness in a climate cabinet and the activity of a compound is assessed as percent disease control compared to untreated when an appropriate level of disease damage appears in untreated check leaf disks (5-7 days after application).

Sclerotinia sclerotiorum = Sclerotinia sclerotiorum / liquid culture (cottony rot); assay type: cell-based; details: liquid culture (potato dextrose broth), growth inhibition photometrically 3-4 days after application, compared to untreated control
Method: Example B14: Sclerotinia sclerotiorum/Liquid Culture (Cottony Rot) Mycelia fragments of a newly grown liquid culture of the fungus are directly mixed into a nutrient broth (potato dextrose broth). After placing a DMSO solution of test compound into a microtiter plate (96-well format) the nutrient broth containing the fungal material is added. The test plates are incubated at 24° C. and the inhibition of growth is determined photometrically 3-4 days after application.

C[C@H]1c2ccsc2[C@@](C)(c2cnn(C)c2)CN1C(=O)c1nnc(-c2ccc(F)cc2F)s1 (racemic) [Compound P-8, [5-(2,4-difluorophenyl)-1,3,4-thiadiazol-2-yl]-[rac-(4R,7R)-4,7-dimethyl-7-(1-methylpyrazol-4-yl)-4,6-dihydrothieno[3,2-c]pyridin-5-yl]methanone]
≥ 80%: pest or weed control at 200 ppm (Alternaria solani) | inhibition of growth at 20 ppm [1] | inhibition of growth at 20 ppm [2] | inhibition of growth at 20 ppm [3] | inhibition of growth at 20 ppm [4] | pest or weed control at 200 ppm (Pyrenophora teres) | inhibition of growth at 20 ppm [5]

Cc1c(C2CN(C(=O)c3cc(-c4ccccc4F)on3)Cc3ccsc32)cnn1C (stereo not shown) [Compound P-35, [7-(1,5-dimethylpyrazol-4-yl)-6,7-dihydro-4H-thieno[3,2-c]pyridin-5-yl]-[5-(2-fluorophenyl)isoxazol-3-yl]methanone]
≥ 80%: pest or weed control at 200 ppm [6]

Cc1nn(C)c(C)c1C1CN(C(=O)c2cc(-c3ccc(F)cc3F)on2)Cc2sccc21 (stereo not shown) [Compound P-36, [5-(2,4-difluorophenyl)isoxazol-3-yl]-[4-(1,3,5-trimethylpyrazol-4-yl)-5,7-dihydro-4H-thieno[2,3-c]pyridin-6-yl]methanone]
≥ 80%: pest or weed control at 200 ppm (Alternaria solani) | inhibition of growth at 20 ppm [1] | inhibition of growth at 20 ppm [2] | inhibition of growth at 20 ppm [3] | inhibition of growth at 20 ppm [4] | pest or weed control at 200 ppm (Pyrenophora teres) | inhibition of growth at 20 ppm [5]

Cc1c(C2CN(C(=O)c3cc(-c4ccc(F)cc4)on3)Cc3sccc32)cnn1C (stereo not shown) [Compound P-30, [4-(1,5-dimethylpyrazol-4-yl)-5,7-dihydro-4H-thieno[2,3-c]pyridin-6-yl]-[5-(4-fluorophenyl)isoxazol-3-yl]methanone]
≥ 80%: pest or weed control at 200 ppm (Alternaria solani) | inhibition of growth at 20 ppm [1] | inhibition of growth at 20 ppm [2] | pest or weed control at 200 ppm [7] | inhibition of growth at 20 ppm [3] | inhibition of growth at 20 ppm [4] | pest or weed control at 200 ppm (Pyrenophora teres) | inhibition of growth at 20 ppm (Sclerotinia sclerotiorum) | inhibition of growth at 20 ppm [5]

C[C@H]1c2sccc2[C@@](C)(c2cnn(C)c2)CN1C(=O)c1cc(-c2ccc(F)cc2F)on1 (racemic) [Compound P-12, [5-(2,4-difluorophenyl)isoxazol-3-yl]-[rac-(4S,7R)-4,7-dimethyl-4-(1-methylpyrazol-4-yl)-5,7-dihydrothieno[2,3-c]pyridin-6-yl]methanone]
≥ 80%: pest or weed control at 200 ppm (Alternaria solani) | inhibition of growth at 20 ppm [1] | inhibition of growth at 20 ppm [2] | pest or weed control at 200 ppm [7] | inhibition of growth at 20 ppm [3] | inhibition of growth at 20 ppm [4] | inhibition of growth at 20 ppm (Sclerotinia sclerotiorum) | inhibition of growth at 20 ppm [5]

Cn1cc(C2(C)CN(C(=O)c3nnc(-c4ccc(F)cc4F)s3)Cc3ccsc32)cn1 (stereo not shown) [Compound P-22, [5-(2,4-difluorophenyl)-1,3,4-thiadiazol-2-yl]-[7-methyl-7-(1-methylpyrazol-4-yl)-4,6-dihydrothieno[3,2-c]pyridin-5-yl]methanone]
≥ 80%: inhibition of growth at 20 ppm [1] | inhibition of growth at 20 ppm [2] | pest or weed control at 200 ppm [7] | inhibition of growth at 20 ppm [3] | inhibition of growth at 20 ppm [4] | pest or weed control at 200 ppm (Pyrenophora teres) | inhibition of growth at 20 ppm [5]

Cc1c([C@@H]2CN(C(=O)c3cc(-c4ccc(F)cc4F)on3)Cc3ccsc32)cnn1C [Compound P-4, [5-(2,4-difluorophenyl)isoxazol-3-yl]-[(7R)-7-(1,5-dimethylpyrazol-4-yl)-6,7-dihydro-4H-thieno[3,2-c]pyridin-5-yl]methanone]
≥ 80%: pest or weed control at 200 ppm (Alternaria solani) | inhibition of growth at 20 ppm [2] | pest or weed control at 200 ppm [7] | inhibition of growth at 20 ppm [3] | pest or weed control at 200 ppm (Pyrenophora teres) | inhibition of growth at 20 ppm [5]

Cc1c(C2CN(C(=O)c3cc(-c4ccc(F)cc4F)on3)Cc3ncsc32)cnn1C (stereo not shown) [Compound P-28, [5-(2,4-difluorophenyl)isoxazol-3-yl]-[7-(1,5-dimethylpyrazol-4-yl)-6,7-dihydro-4H-thiazolo[4,5-c]pyridin-5-yl]methanone]
≥ 80%: pest or weed control at 200 ppm (Alternaria solani) | inhibition of growth at 20 ppm [2] | pest or weed control at 200 ppm [7] | inhibition of growth at 20 ppm [3] | inhibition of growth at 20 ppm [4] | pest or weed control at 200 ppm (Pyrenophora teres) | inhibition of growth at 20 ppm [5]

Cc1c(C2CN(C(=O)c3cc(-c4ccccc4F)on3)Cc3sccc32)cnn1C (stereo not shown) [Compound P-31, [4-(1,5-dimethylpyrazol-4-yl)-5,7-dihydro-4H-thieno[2,3-c]pyridin-6-yl]-[5-(2-fluorophenyl)isoxazol-3-yl]methanone]
≥ 80%: pest or weed control at 200 ppm (Alternaria solani) | inhibition of growth at 20 ppm [1] | inhibition of growth at 20 ppm [2] | pest or weed control at 200 ppm [7] | inhibition of growth at 20 ppm [3] | inhibition of growth at 20 ppm [4] | pest or weed control at 200 ppm (Pyrenophora teres) | inhibition of growth at 20 ppm [5]

Cc1c(C2CN(C(=O)c3cc(-c4ccc(F)cc4F)on3)Cc3nnsc32)cnn1C (stereo not shown) [Compound P-27, [5-(2,4-difluorophenyl)isoxazol-3-yl]-[7-(1,5-dimethylpyrazol-4-yl)-6,7-dihydro-4H-thiadiazolo[4,5-c]pyridin-5-yl]methanone]
≥ 80%: pest or weed control at 200 ppm (Alternaria solani) | inhibition of growth at 20 ppm [2] | pest or weed control at 200 ppm [6] | pest or weed control at 200 ppm [7] | inhibition of growth at 20 ppm [3] | pest or weed control at 200 ppm (Pyrenophora teres) | inhibition of growth at 20 ppm [5]
